Reference: patent US8329904B2, “Azacyclic derivatives” (Hoffmann-La Roche Inc., priority 2009, dated 2012)

Molecular target: T1, human HSL (Homo sapiens, UniProt Q05469)
T1 construct: overlapping PCR to generate a full length human HSL ORF with a 3′-His6 tag; His6 (C); made in house; host or cells: High 5 insect cells (baculovirus, pFast-BAC)
T1 sequence (Q05469 1-1076): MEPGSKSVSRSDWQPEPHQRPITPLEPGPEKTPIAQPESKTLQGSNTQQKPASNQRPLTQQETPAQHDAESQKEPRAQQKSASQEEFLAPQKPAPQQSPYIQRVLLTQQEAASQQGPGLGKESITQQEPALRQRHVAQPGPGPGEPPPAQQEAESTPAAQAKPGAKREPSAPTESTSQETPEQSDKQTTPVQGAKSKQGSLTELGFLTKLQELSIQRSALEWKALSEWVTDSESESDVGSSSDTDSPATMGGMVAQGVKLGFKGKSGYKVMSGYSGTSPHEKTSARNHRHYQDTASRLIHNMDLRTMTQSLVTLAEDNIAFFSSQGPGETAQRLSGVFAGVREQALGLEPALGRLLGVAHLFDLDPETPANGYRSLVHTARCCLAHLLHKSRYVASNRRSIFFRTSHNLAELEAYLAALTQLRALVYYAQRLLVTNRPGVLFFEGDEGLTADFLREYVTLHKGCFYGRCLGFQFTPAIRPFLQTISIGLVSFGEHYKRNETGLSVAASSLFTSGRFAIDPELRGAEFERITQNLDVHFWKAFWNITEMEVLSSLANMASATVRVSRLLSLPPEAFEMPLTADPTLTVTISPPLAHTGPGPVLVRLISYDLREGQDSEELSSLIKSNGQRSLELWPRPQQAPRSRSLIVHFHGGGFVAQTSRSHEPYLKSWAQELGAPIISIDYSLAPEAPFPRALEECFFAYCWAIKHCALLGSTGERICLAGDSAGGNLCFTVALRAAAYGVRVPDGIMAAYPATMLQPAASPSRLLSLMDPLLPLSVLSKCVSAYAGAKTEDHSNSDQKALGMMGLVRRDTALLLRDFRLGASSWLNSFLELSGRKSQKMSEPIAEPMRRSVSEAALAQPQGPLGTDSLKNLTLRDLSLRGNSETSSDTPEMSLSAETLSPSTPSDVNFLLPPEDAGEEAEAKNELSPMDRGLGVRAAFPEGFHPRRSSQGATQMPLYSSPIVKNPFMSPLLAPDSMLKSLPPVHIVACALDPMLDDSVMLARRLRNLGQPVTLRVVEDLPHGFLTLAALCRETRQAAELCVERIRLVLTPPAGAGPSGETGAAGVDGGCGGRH
Assay: Human Hormone-Sensitive Lipase (HSL) Enzyme Inhibition Assay
Format: biochemical
Conditions: colorimetric assay, 2,3-dimercapto-1-propanol tributyrate (DMPT) substrate, 37° C. for 20 minutes, absorbance at 405 nm; read-out: HSL hum IC50
Outline: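 Colorimetric thioester hydrolysis: compounds in DMSO series mixed with DMPT (1.5 mM) in MOPS pH 7.2 with BSA, then baculovirus-expressed His6-tagged full-length human HSL added, 37° C, 20 min. DTNB plus detergents added, 15 min room temperature, absorbance at 405 nm.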

Going from `O=C1N(c2ccc(OC(F)(F)F)cc2)CCC12CCN(S(=O)(=O)CC1(O)CCCC1)CC2` [Example 210, 8-(1-Hydroxy-cyclopentylmethanesulfonyl)-2-(4-trifluoromethoxy-phenyl)-2,8-diaza-spiro[4.5]decan-1-one] to `COC1(CS(=O)(=O)N2CCC3(CCN(c4ccc(OC(F)(F)F)cc4)C3=O)CC2)CCCC1` [Example 211, 8-(1-Methoxy-cyclopentylmethanesulfonyl)-2-(4-trifluoromethoxy-phenyl)-2,8-diaza-spiro[4.5]decan-1-one], the IC50 rises from 60 nM to 130 nM (2.2-fold).

Going from `CC(C)(O)CS(=O)(=O)N1CCC2(CCN(c3ccc(OC(F)(F)F)cc3)C2=O)CC1` [Example 212, 8-(2-Hydroxy-2-methyl-propane-1-sulfonyl)-2-(4-trifluoromethoxy-phenyl)-2,8-diaza-spiro[4.5]decan-1-one] to `Cc1cc(CS(=O)(=O)N2CCC3(CCN(c4ccc(OC(F)(F)F)cc4)C3=O)CC2)no1` [Example 232, 8-(5-Methyl-isoxazol-3-ylmethanesulfonyl)-2-(4-trifluoromethoxy-phenyl)-2,8-diaza-spiro[4.5]decan-1-one], the IC50 falls from 200 nM to 90 nM (2.2-fold).

Compared with `O=C1N(c2ccc(OC(F)(F)F)cc2)CCC12CCN(S(=O)(=O)/C=C1/CCCO1)CC2` [Example 213, 8-[Dihydro-furan-(2Z)-ylidenemethanesulfonyl]-2-(4-trifluoromethoxy-phenyl)-2,8-diaza-spiro[4.5]decan-1-one], `O=C1N(c2ccc(OC(F)(F)F)cc2)CCC12CCN(S(=O)(=O)CC1CCCO1)CC2` (stereo not drawn) [Example 214, 8-(Tetrahydro-furan-2-ylmethanesulfonyl)-2-(4-trifluoromethoxy-phenyl)-2,8-diaza-spiro[4.5]decan-1-one] is 1.5-fold lower in IC50: 150 nM for the first, 100 nM for the second.

`CCC(C)(O)CC(=O)N1CCC2(CC1)CCN(c1ccc(OC(F)(F)F)cc1)C2=O` (stereo not drawn) [Example 215, 8-(3-Hydroxy-3-methyl-pentanoyl)-2-(4-trifluoromethoxy-phenyl)-2,8-diaza-spiro[4.5]decan-1-one] and `O=C(CCl)N1CCC2(CC1)CCN(c1ccc(OC(F)(F)F)cc1)C2=O` [Example 225, 8-(2-Chloro-acetyl)-2-(4-trifluoromethoxy-phenyl)-2,8-diaza-spiro[4.5]decan-1-one] are within 1.5-fold of each other in IC50: 470 nM for the first, 320 nM for the second.

First: O=C(CC1CCC1)N1CCC2(CC1)CCN(c1ccc(OC(F)(F)F)cc1)C2=O [Example 216, 8-(2-Cyclobutyl-acetyl)-2-(4-trifluoromethoxy-phenyl)-2,8-diaza-spiro[4.5]decan-1-one]
Second: O=C(COC1CCCC1)N1CCC2(CC1)CCN(c1ccc(OC(F)(F)F)cc1)C2=O [Example 226, 8-(2-Cyclopentyloxy-acetyl)-2-(4-trifluoromethoxy-phenyl)-2,8-diaza-spiro[4.5]decan-1-one]
The IC50 of the first is 5-fold higher: 250 nM for the first, 50 nM for the second.

Going from `CC(C)OCC(=O)N1CCC2(CC1)CCN(c1ccc(OC(F)(F)F)cc1)C2=O` [Example 217, 8-(2-Isopropoxy-acetyl)-2-(4-trifluoromethoxy-phenyl)-2,8-diaza-spiro[4.5]decan-1-one] to `CC(C)(C)OCC(=O)N1CCC2(CC1)CCN(c1ccc(OC(F)(F)F)cc1)C2=O` [Example 218, 8-(2-tert-Butoxy-acetyl)-2-(4-trifluoromethoxy-phenyl)-2,8-diaza-spiro[4.5]decan-1-one], the IC50 falls from 220 nM to 100 nM (2.2-fold).

Going from `O=C(N1CCC2(CC1)CCN(c1ccc(OC(F)(F)F)cc1)C2=O)C1(O)CC1` [Example 219, 8-(1-Hydroxy-cyclopropanecarbonyl)-2-(4-trifluoromethoxy-phenyl)-2,8-diaza-spiro[4.5]decan-1-one] to `Cc1nc(C(=O)N2CCC3(CC2)CCN(c2ccc(OC(F)(F)F)cc2)C3=O)cs1` [Example 224, 8-(2-Methyl-thiazole-4-carbonyl)-2-(4-trifluoromethoxy-phenyl)-2,8-diaza-spiro[4.5]decan-1-one], the IC50 rises from 280 nM to 820 nM (2.9-fold).

`O=C(COCc1ccccc1)N1CCC2(CC1)CCN(c1ccc(OC(F)(F)F)cc1)C2=O` [Example 220, 8-(2-Benzyloxy-acetyl)-2-(4-trifluoromethoxy-phenyl)-2,8-diaza-spiro[4.5]decan-1-one] and `O=C(COc1ccccc1)N1CCC2(CC1)CCN(c1ccc(OC(F)(F)F)cc1)C2=O` [Example 221, 8-(2-Phenoxy-acetyl)-2-(4-trifluoromethoxy-phenyl)-2,8-diaza-spiro[4.5]decan-1-one] are within 1.5-fold of each other in IC50: 80 nM for the first, 60 nM for the second.

`CC(C(=O)N1CCC2(CC1)CCN(c1ccc(OC(F)(F)F)cc1)C2=O)c1ccccc1` (stereo not drawn) [Example 222, 8-(2-Phenyl-propionyl)-2-(4-trifluoromethoxy-phenyl)-2,8-diaza-spiro[4.5]decan-1-one] and `CCC(C(=O)N1CCC2(CC1)CCN(c1ccc(OC(F)(F)F)cc1)C2=O)c1ccccc1` (stereo not drawn) [Example 223, 8-(2-Phenyl-butyryl)-2-(4-trifluoromethoxy-phenyl)-2,8-diaza-spiro[4.5]decan-1-one] are within 1.5-fold of each other in IC50: 100 nM for the first, 110 nM for the second.

`O=C1N(c2ccc(C(F)(F)F)c(Cl)c2)CCC12CCN(S(=O)(=O)c1ccccc1Cl)CC2` [Example 227, 8-(2-Chloro-benzenesulfonyl)-2-(3-chloro-4-trifluoromethyl-phenyl)-2,8-diaza-spiro[4.5]decan-1-one] and `O=C1N(c2ccc3c(c2)OC(F)(F)O3)CCC12CCN(S(=O)(=O)c1ccccc1Cl)CC2` [Example 228, 8-(2-Chloro-benzenesulfonyl)-2-(2,2-difluoro-benzo[1,3]-dioxol-5-yl)-2,8-diaza-spiro[4.5]decan-1-one] are within 1.5-fold of each other in IC50: 80 nM for the first, 60 nM for the second.

First: O=C1N(c2ccc(C3(O)COC3)cc2)CCC12CCN(S(=O)(=O)c1ccccc1Cl)CC2 [Example 229, 8-(2-Chloro-benzenesulfonyl)-2-[4-(3-hydroxy-oxetan-3-yl)-phenyl]-2,8-diaza-spiro[4.5]decan-1-one]
Second: O=C1N(c2ccc(C3(F)COC3)cc2)CCC12CCN(S(=O)(=O)c1ccccc1Cl)CC2 [Example 230, 8-(2-Chloro-benzenesulfonyl)-2-[4-(3-fluoro-oxetan-3-yl)-phenyl]-2,8-diaza-spiro[4.5]decan-1-one]
The IC50 of the first is 8-fold higher: 240 nM for the first, 30 nM for the second. The second is the more potent here.

Compared with `O=C1N(c2ccc(C3(O)CCC3)cc2)CCC12CCN(S(=O)(=O)c1ccccc1Cl)CC2` [Example 231, 8-(2-Chloro-benzenesulfonyl)-2-[4-(1-hydroxy-cyclobutyl)-phenyl]-2,8-diaza-spiro[4.5]decan-1-one], `O=C1N(Cc2cccc(Cl)c2)CCC12CCN(S(=O)(=O)c1ccccc1Cl)CC2` [Example 235, 8-(2-Chloro-benzenesulfonyl)-2-(3-chloro-benzyl)-2,8-diaza-spiro[4.5]decan-1-one] is 20-fold higher in IC50: 20 nM for the first, 400 nM for the second. The first is the more potent here.

`CC(C)c1cc(CS(=O)(=O)N2CCC3(CCN(c4ccc(OC(F)(F)F)cc4)C3=O)CC2)on1` [Example 233, 8-(3-Isopropyl-isoxazol-5-ylmethanesulfonyl)-2-(4-trifluoromethoxy-phenyl)-2,8-diaza-spiro[4.5]decan-1-one] and `COC(=O)c1cccc(C)c1S(=O)(=O)N1CCC2(CCN(c3ccc(OC(F)(F)F)cc3)C2=O)CC1` [Example 234, 3-Methyl-2-[1-oxo-2-(4-trifluoromethoxy-phenyl)-2,8-diaza-spiro[4.5]decane-8-sulfonyl]-benzoic acid methyl ester] are within 1.5-fold of each other in IC50: 200 nM for the first, 150 nM for the second.

Compound `O=C1N(CCc2ccccc2)CCC12CCN(S(=O)(=O)c1ccccc1Cl)CC2` [Example 236, 8-(2-Chloro-benzenesulfonyl)-2-phenethyl-2,8-diaza-spiro[4.5]decan-1-one] has an IC50 of 50 nM.
